In test [1] the target is T1, Beta-secretase 1 (Homo sapiens, UniProt P56817).
Description: Inhibition of BACE1 in human neuroblastoma cells
Test [2] has as its target T1, Beta-secretase 1. The source holds these as a separate data set.
The next test addresses Cathepsin D (Homo sapiens, UniProt P07339).

T1 sequence (P56817 whole entry): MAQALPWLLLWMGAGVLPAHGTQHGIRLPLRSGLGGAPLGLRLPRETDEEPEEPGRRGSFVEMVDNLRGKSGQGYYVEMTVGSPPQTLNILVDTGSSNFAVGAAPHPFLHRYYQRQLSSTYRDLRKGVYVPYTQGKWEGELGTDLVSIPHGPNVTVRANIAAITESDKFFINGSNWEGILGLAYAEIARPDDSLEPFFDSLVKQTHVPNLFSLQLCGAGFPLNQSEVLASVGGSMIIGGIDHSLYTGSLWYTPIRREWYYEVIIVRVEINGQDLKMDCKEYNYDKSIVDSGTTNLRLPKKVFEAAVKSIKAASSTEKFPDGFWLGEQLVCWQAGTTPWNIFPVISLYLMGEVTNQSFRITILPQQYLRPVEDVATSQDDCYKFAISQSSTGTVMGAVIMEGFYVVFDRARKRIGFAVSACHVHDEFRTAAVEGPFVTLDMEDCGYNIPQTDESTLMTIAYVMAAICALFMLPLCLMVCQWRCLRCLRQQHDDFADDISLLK
Sequence of Cathepsin D (P07339 65-162 limits assumed): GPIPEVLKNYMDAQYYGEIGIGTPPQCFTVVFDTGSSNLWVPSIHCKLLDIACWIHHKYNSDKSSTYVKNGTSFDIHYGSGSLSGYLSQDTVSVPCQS
Sequence of Cathepsin D (P07339 169-412 limits assumed): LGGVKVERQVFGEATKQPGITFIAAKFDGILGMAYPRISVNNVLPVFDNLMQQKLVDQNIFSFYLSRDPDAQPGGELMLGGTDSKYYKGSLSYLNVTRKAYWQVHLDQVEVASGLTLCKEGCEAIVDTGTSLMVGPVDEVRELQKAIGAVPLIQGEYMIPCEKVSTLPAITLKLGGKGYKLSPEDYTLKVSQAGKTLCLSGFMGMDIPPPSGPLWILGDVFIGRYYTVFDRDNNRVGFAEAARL
Description for Cathepsin D: Inhibition of human cathepsin D

Broadly, the IC50 is the midpoint of a concentration-inhibition curve. What is called Ki is the dissociation constant of the complex between target and ligand, obtained from inhibition or displacement. `CCC[C@H](O)[C@H](NC[C@H](Cc1ccccc1)NC(=O)c1cc2c3c(c1)c(CC)cn3CC1(CC1)S(=O)(=O)N2C)C(=O)NC(C)C`: half-maximal inhibition against Beta-secretase 1 [1] (IC50) was put at 14 nM. For the same compound, the Ki on Beta-secretase 1 [2] came to 0.47 nM; on Cathepsin D, 2000 nM.
Turning to `CC(C)CNC[C@@H](NC[C@H](Cc1ccccc1)NC(=O)c1cc(C(=O)N[C@H](C)c2ccccc2)cc(N(C)S(C)(=O)=O)c1)[C@H](C)O`, the Ki on Beta-secretase 1 [2] was greater than 1000 nM.

(Values after ChEMBL document CHEMBL2177024 (J Med Chem, 2012).)
